The source of these data is patent publication US20260125359A1, “HETEROARYL COMPOUNDS AS MULTI-TARGET PROTEIN KINASE INHIBITORS” (FUJIAN HAIXI PHARMACEUTICALS CO., LTD., priority 2023, published 2026).

Structures are written as SMILES.

The subject of this assay is M-NFS-60 cells. The assay is described as follows: M-NFS-60 cell in vitro assay (CCK, 48 h, M-CSF factor medium). The format is cell-based. The settings on record: M-NFS-60 cells; read-out: M-NFS-60cellassay IC50. The procedure: To determine the inhibitory activity of compounds on M-NFS-60 cells.
• M-NFS-60 cell line (ATCC, Cat. No.: CRL-1838) • RPMI-1640 medium (Gibco, domestic subpackage, Cat. No.: C11875500BT) • Recombinant Mouse CSF1/M-CSF (Sino Biological Inc., Cat. No.: 51112-MNAH) • PAN/Serum (BioTECH, Cat. No.: P30-2602) • Trypsin/0.05% Trypsin-EDTA (Gibco, Cat. No.: 25300-062) • 0.4% Trypan Blue (Sigma, Cat. No.: T8154-20 ml) • Penicillin-Streptomycin (Hyclone, Cat. No.: SV30010) • DMSO (Solarbio, Cat. No.: D8371) • PBS (Solarbio, Cat. No.: P1020) • CCK (AbMole BioScience, Cat. No.: M4839-500Tests)
• 1) M-CSF factor stock solution: take 10 μg of powdered m-CSF factor, add 0.4 ml of saline, formulate 25 ug/ml and store at −80° C. • 2) M-CSF factor (25 ng/ml) medium: • 1640 (Gibco)+10% PAN+100×Penicillin-Streptomycin+100×M-CSF stock solution • 3) Complete medium: • 1640 (Gibco)+10% PAN+100×Penicillin-Streptomycin • 4) Compound preparation: 2-3 mg of the compound was added to DMSO to formulate a 30 mM stock solution, −80° C. refrigerator storage
• 1) Cell resuscitation: the frozen cells in the cryovial were thawed rapidly by shaking in a 37° C. water bath, then 4 mL of medium was added. After mixing evenly, they were centrifuged at 125×g for 5 min, and the supernatant was discarded. The cells were resuspended and transferred to the culture flasks, and were cultured in a 5% CO2 fully saturated humidity incubator. • 2) Cell passaging: M-NFS-60 cells are semi-suspension cells, which were collected directly in a 15 mL centrifuge tube, centrifuged at 125×g for 5 min. and the supernatant was discarded. The cells were resuspended and passaged into new culture flasks at a ratio of 1:5 to 1:10. • 3) After the newly resuscitated cells were passaged 1-2 times for cell stabilization, compound inhibition assays were started when the cells were in the logarithmic growth phase. • (a) Cell collection and counting: the same as the cell passaging step, centrifuge in two tubes, one tube with M-CSF factor medium to resuspend the cells, the other tube with complete medium to resuspend the cells. Take 10 μL of cell suspension in each tube, and count the cells by Tepan blue staining. • (b) Dilute the cell solution according to the concentration of inoculated cells respectively, the concentration of M-NFS-60 cells inoculated with factor was 5.56×10^4 cells/mL, and the concentration of inoculated without factor was 5×10^4 cells/mL. • (c) Seed plate: 384 well plate inoculated with M-NFS-60 cells, 36 uL/well, triplicate wells, the number of inoculated cells was equivalent to 2000 cells/well, set with blank control, factor free negative control, normal control, DMSO control and experimental wells. The cells were placed in a 5% CO2 fully saturated humidity incubator for 4 h. • (d) Sampling compounds: 96 well plates were used for compound preparation. The compound solution prepared in advance was diluted to corresponding gradient concentration with DMSO. An appropriate amount of the diluted solution in the previous step was added to an equal volume of factor containing medium. The 96 well plates were centrifuged at 1000 rpm for 5 min, which played the role of defoaming and spinning down droplets and condensation. Remove the 384 well plate from the incubator, add the diluted compound solution into each well sequentially, 4 μL/well; DMSO wells and normal wells were added with corresponding factor containing medium, 4 μL/well. Then it was put into CO2 incubator for 48 h. • (e) After incubation for 48 h, CCK was added to each well, 4 uL, and the plates were placed in the incubator for another 2 h, and then the OD (optical density) value at 450 nm was measured by microplate reader.
The IC50 values for each test compound were fitted using professional graphing and analysis software.
In the case of `Cn1cc(-c2cncc(N[C@H]3CCc4c(C(=O)Nc5ccc(Cl)c(F)c5)cccc43)c2)cn1` [Compound 14ao], the 50% inhibitory concentration (IC50) (commonly the point on the concentration scale where inhibition reaches its midpoint) is less than 50 nM. The value for `CN1CCN(c2ccc(NC(=O)c3cccc4c3CC[C@@H]4Nc3cncc(-c4cnn(C)c4)c3)cc2)CC1` [Compound 14aq] was 200 to 500 nM; that for `CN1CCN(Cc2cccc(NC(=O)c3cccc4c3CC[C@@H]4Nc3cncc(-c4cnn(C)c4)c3)c2)CC1` [Compound 14ar] was 200 to 500 nM; that for `Cn1cc(-c2cncc(N[C@H]3CCc4c(C(=O)Nc5cccc(CN6CCCCC6)c5)cccc43)c2)cn1` [Compound 14at] was 50 to 200 nM. Take `CN(C)Cc1ccc(NC(=O)c2cccc3c2CC[C@@H]3Nc2cncc(-c3cnn(C)c3)c2)cc1` [Compound 14au]: the 50% inhibitory concentration (IC50) lay within 50 to 200 nM. Take `Cn1cc(-c2cncc(N[C@H]3CCc4c(C(=O)Nc5cccc(CN6CCCC6)c5)cccc43)c2)cn1` [Compound 14av]: the IC50 lay within 50 to 200 nM. `Cn1cc(-c2cncc(N[C@H]3CCc4c(C(=O)Nc5cccc(C6CC6)c5)cccc43)c2)cn1` [Compound 14aw]: the IC50 was less than 50 nM. Turning to `Cn1cc(-c2cncc(N[C@H]3CCc4c(C(=O)Nc5cccc(C(F)(F)F)c5)cccc43)c2)cn1` [Compound 14ax], the IC50 was less than 50 nM. On to `CN1CCc2cc(NC(=O)c3cccc4c3CC[C@@H]4Nc3cncc(-c4cnn(C)c4)c3)ccc2C1` [Compound 14ay], for which the 50% inhibitory concentration (IC50) was in the range of 50 to 200 nM. For the compound `CN(C)Cc1cccc(NC(=O)c2cccc3c2CC[C@@H]3Nc2cncc(-c3cnn(C)c3)c2)c1` [Compound 14az], the IC50 was 50 to 200 nM. On to `Cc1cccc(C(=O)Nc2cccc3c2CC[C@H]3Oc2cncc(-c3cnn(C)c3)c2)c1` [Compound 16, (R)-3-methyl-N-(1-((5-(1-methyl-1H-pyrazol-4-yl)pyridin-3-yl)oxy)-2,3-dihydro-1H-inden-4-yl)benzamide], for which the half-inhibitory concentration (IC50) was greater than 500 nM. Then `Cn1cc(-c2cncc(O[C@H]3CCc4c(C(=O)Nc5ccc(C(F)(F)F)cc5)cccc43)c2)cn1` [Compound 17, (S)-1-((5-(1-methyl-1H-pyrazol-4-yl)pyridin-3-yl)oxy)-N-(4-(trifluoromethyl)phenyl)-2,3-dihydro-1H-indene-4-carboxamide], with less than 50 nM.

For `CN1CCc2ccc(NC(=O)c3cccc4c3CC[C@@H]4Oc3cncc(-c4cnn(C)c4)c3)cc2C1` [Compound 18, (S)—N-(2-methyl-1,2,3,4-tetrahydroisoquinolin-7-yl)-1-((5-(1-methyl-1H-pyrazol-4-yl)pyridin-3-yl)oxy)-2,3-dihydro-1H-indene-4-carboxamide], the IC50 was in the range of 50 to 200 nM.

On to `CN(C)Cc1ccc(NC(=O)c2cccc3c2CC[C@@H]3Oc2cncc(-c3cnn(C)c3)c2)cc1` [Compound 19c], for which the 50% inhibitory concentration (IC50) lay within 50 to 200 nM. As for `CN(C)Cc1cccc(NC(=O)c2cccc3c2CC[C@@H]3Oc2cncc(-c3cnn(C)c3)c2)c1` [Compound 19e], the 50% inhibitory concentration (IC50) was 50 to 200 nM. Then `CN1CCc2c(cccc2NC(=O)c2cccc3c2CC[C@@H]3Oc2cncc(-c3cnn(C)c3)c2)C1` [Compound 19g], with greater than 500 nM.

Turning to `CN1CCc2cc(NC(=O)c3cccc4c3CC[C@@H]4Oc3cncc(-c4cnn(C)c4)c3)ccc2C1` [Compound 19i], the IC50 fell in the range of 50 to 200 nM. On to `CNCc1cccc(NC(=O)c2cccc3c2CC[C@@H]3Oc2cncc(-c3cnn(C)c3)c2)c1` [Compound 19l], for which the IC50 is greater than 500 nM.

For `Cn1cc(-c2cncc(O[C@H]3CCc4c(C(=O)Nc5cccc(C(C)(C)N)c5)cccc43)c2)cn1` [Compound 19m], the IC50 lay within 200 to 500 nM. The value for `Cn1cc(-c2cncc(O[C@H]3CCc4c(C(=O)Nc5ccc6c(c5)OCCO6)cccc43)c2)cn1` [Compound 19n] was less than 50 nM. As for `CN1CC(c2cccc(NC(=O)c3cccc4c3CC[C@@H]4Oc3cncc(-c4cnn(C)c4)c3)c2)C1` [Compound 19o], the IC50 was in the range of 50 to 200 nM.

For the compound `Cc1cc(NC(=O)c2cccc3c2CC[C@@H]3Oc2cncc(-c3cnn(C)c3)c2)ccn1` [Compound 19p], the IC50 was less than 50 nM. Then `CN(C)Cc1cc(NC(=O)c2cccc3c2CC[C@@H]3Oc2cncc(-c3cnn(C)c3)c2)ccc1C(F)(F)F` [Compound 19q], with less than 50 nM; and `CN(C)CCOc1cccc(NC(=O)c2cccc3c2CC[C@@H]3Oc2cncc(-c3cnn(C)c3)c2)c1` [Compound 19r], with 50 to 200 nM; and `Cn1cc(-c2cncc(O[C@H]3CCc4c(C(=O)Nc5cccc(CN6CCC6)c5)cccc43)c2)cn1` [Compound 19s], with 200 to 500 nM. For `Cn1cc(-c2cncc(O[C@H]3CCc4c(C(=O)Nc5cncc(F)c5)cccc43)c2)cn1` [Compound 19t], the IC50 is 50 to 200 nM. On to `Cn1cc(-c2cncc(O[C@H]3CCc4c(C(=O)Nc5ccc6c(c5)CNC6)cccc43)c2)cn1` [Compound 19u], for which the IC50 was greater than 500 nM. `CN1Cc2ccc(NC(=O)c3cccc4c3CC[C@@H]4Oc3cncc(-c4cnn(C)c4)c3)cc2C1` [Compound 19v]: the IC50 lay in the range of 200 to 500 nM. As to `Cc1ncc(-c2cnn(C)c2)cc1O[C@H]1CCc2c(C(=O)Nc3ccc(C(F)(F)F)cc3)cccc21` [Compound 19w], the concentration for half-maximal inhibition (IC50) fell in the range of 200 to 500 nM. For `CN(c1cncc(-c2cnn(C)c2)c1)[C@H]1CCc2c(C(=O)Nc3ccc(C(F)(F)F)cc3)cccc21` [Compound 20, (S)-1-(methyl (5-(1-methyl-1H-pyrazol-4-yl)pyridin-3-yl)amino)-N-(4-(trifluoromethyl)phenyl)-2,3-dihydro-1H-indene-4-carboxamide], the IC50 was less than 50 nM. Regarding `CN(c1cncc(-c2cnn(C)c2)c1)[C@H]1CCc2c(C(=O)Nc3cccc(C(F)(F)F)c3)cccc21` [Compound 22b], the IC50 was less than 50 nM. With `CN1CCc2ccc(NC(=O)c3cccc4c3CC[C@@H]4N(C)c3cncc(-c4cnn(C)c4)c3)cc2C1` [Compound 22c], the IC50 lay in the range of 50 to 200 nM. `CN(C)Cc1cccc(NC(=O)c2cccc3c2CC[C@@H]3N(C)c2cncc(-c3cnn(C)c3)c2)c1` [Compound 22d]: the IC50 lay within 50 to 200 nM.

With `CN1CCc2cc(NC(=O)c3cccc4c3CC[C@@H]4N(C)c3cncc(-c4cnn(C)c4)c3)ccc2C1` [Compound 22e], the IC50 is 200 to 500 nM. With `CN(C)Cc1ccc(NC(=O)c2cccc3c2CC[C@@H]3N(C)c2cncc(-c3cnn(C)c3)c2)cc1` [Compound 22f], the IC50 is greater than 500 nM. Then `CN(c1cncc(-c2cnn(C)c2)c1)[C@H]1CCc2c(C(=O)Nc3nn(C)c4ccccc34)cccc21` [Compound 22g], with less than 50 nM; and `CN(c1cncc(-c2cnn(C)c2)c1)[C@H]1CCc2c(NC(=O)c3ccc(C(F)(F)F)cc3)cccc21` [Compound 23, (S)—N-(1-(methyl (5-(1-methyl-1H-pyrazol-4-yl)pyridin-3-yl)amino)-2,3-dihydro-1H-inden-4-yl)-4-(trifluoromethyl)benzamide], with greater than 500 nM. The value for `Cn1cc(-c2cncc(N[C@H]3CCc4c(NC(=O)c5ccc6c(c5)OC(F)(F)O6)cccc43)n2)cn1` [Compound 24, (S)-2,2-difluoro-N-(1-((6-(1-methyl-1H-pyrazol-4-yl)pyrazin-2-yl)amino)-2,3-dihydro-1H-inden-4-yl)benzo[d][1,3]dioxole-5-carboxamide] was less than 50 nM; that for `Cc1cccc(C(=O)Nc2cccc3c2CC[C@@H]3Nc2cncc(-c3cnn(C)c3)n2)c1` [Compound 25a] was less than 50 nM; that for `Cc1cccc(C(=O)Nc2cccc3c2CC[C@H]3Nc2cncc(-c3cnn(C)c3)n2)c1` [Compound 25b] was greater than 500 nM. With `Cn1cc(-c2cncc(N[C@H]3CCc4c(NC(=O)c5cccc(C(F)(F)F)c5F)cccc43)n2)cn1` [Compound 25c], the IC50 is less than 50 nM.
